17 compounds from DBAASP can be followed below.

In general, MIC refers to the lowest concentration found to suppress growth.

SMILES strings stand for the structures. Values after ≈ are worked out from the molar mass of the structure shown.

Test in all cases: ≥ marks a high value that may be exact or a test limit, other limits are often not marked, values filed in µg/mL are converted to µM
In experiment [1] the test system is Pseudomonas aeruginosa ATCC 27853.
The subject of experiment [2] is Escherichia coli ATCC 25922.
In experiment [3] the test system is Staphylococcus aureus ATCC 29213.
In experiment [4] the test system is Staphylococcus aureus.
Experiment [5] concerns Escherichia coli.
For experiment [6], the system named is Staphylococcus aureus ATCC 25923.

Turning to `CC[C@H](C)[C@H](NC(=O)[C@H](Cc1ccc(O)cc1)NC(=O)[C@H](CCC(N)=O)NC(=O)[C@H](CC(C)C)NC(=O)[C@H](C)N)C(=O)N[C@@H](CCCCN)C(=O)N[C@@H](CC(C)C)C(=O)N[C@@H](CC(C)C)C(=O)N[C@@H](CCCCN)C(=O)N[C@@H](CCC(=O)O)C(N)=O` [ALQYIKLLKE], the MIC in experiment [1] and in experiment [2] was more than 100 µM throughout.
`CC[C@H](C)[C@H](NC(=O)[C@H](CCCN=C(N)N)NC(=O)[C@H](CCC(N)=O)NC(=O)[C@H](CO)NC(=O)[C@@H](NC(=O)[C@H](CCCN=C(N)N)NC(=O)[C@H](CCCCN)NC(=O)[C@@H](N)Cc1ccccc1)[C@@H](C)CC)C(=O)N[C@@H](CCCCN)C(=O)N[C@@H](CC(=O)O)C(=O)N[C@@H](Cc1ccccc1)C(=O)N[C@@H](CC(C)C)C(=O)N[C@@H](CCCN=C(N)N)C(=O)O` [FKRISQRIKDFLR]: the MIC in experiment [3] was more than 40 µM; in experiment [2], 5 µM (≈ 8.54 µg/mL).
Take `CC[C@H](C)[C@H](NC(=O)[C@H](CCCCN)NC(=O)[C@H](CC(C)C)NC(=O)[C@H](C)NC(=O)[C@H](C)NC(=O)[C@H](CCCCN)NC(=O)[C@H](CC(C)C)NC(=O)[C@H](C)NC(=O)[C@H](CCCCN)NC(=O)CNC(=O)[C@H](CC(C)C)NC(=O)[C@H](Cc1ccccc1)NC(=O)[C@H](CO)NC(=O)CNC(=O)[C@H](Cc1ccccc1)NC(=O)CN)C(=O)NCC(=O)N[C@@H](C)C(=O)N[C@@H](CC(N)=O)C(=O)N[C@H](C(=O)N[C@@H](CC(C)C)C(=O)NCC(=O)NCC(=O)N[C@@H](C)C(=O)N1CCC[C@H]1C(=O)N[C@@H](CCC(=O)O)C(=O)N[C@@H](CCC(N)=O)C(=O)O)C(C)C` [GFGSFLGKALKAALKIGANVLGGAPEQ]: the MIC was determined as 6 µM (≈ 15.7 µg/mL) in experiment [4] and 25 µM (≈ 65.4 µg/mL) in experiment [5].
On to `CC[C@H](C)[C@H](NC(=O)CN)C(=O)NCC(=O)N[C@@H](CO)C(=O)N[C@@H](C)C(=O)N[C@@H](CC(C)C)C(=O)N[C@@H](C)C(=O)N[C@@H](CCCCN)C(=O)N[C@@H](C)C(=O)N[C@@H](C)C(=O)N[C@@H](CCCCN)C(=O)N[C@@H](CC(C)C)C(=O)N[C@H](C(=O)N[C@@H](C)C(=O)NCC(=O)N[C@H](C(=O)N[C@H](C(N)=O)C(C)C)[C@@H](C)CC)C(C)C` [GIGSALAKAAKLVAGIV], for which the MIC in experiment [4] came to 12.5 µM (≈ 19.2 µg/mL); in experiment [5], 50 µM (≈ 76.9 µg/mL).
Regarding `CC[C@H](C)[C@H](N)C(=O)N[C@H](C(=O)N[C@@H](CO)C(=O)N[C@H](C(=O)N[C@H](C(=O)NCC(=O)N[C@@H](CCCCN)C(=O)N[C@@H](CC(C)C)C(=O)N[C@H](C(=O)N[C@@H](CCCCN)C(=O)N[C@@H](Cc1c[nH]c2ccccc12)C(=O)N[C@H](C(=O)N[C@H](C(=O)N[C@@H](CCCCN)C(=O)N[C@H](C(=O)N[C@H](C(=O)N[C@@H](CC(N)=O)C(=O)N[C@@H](CCCCN)C(=O)N[C@@H](Cc1ccccc1)C(=O)N[C@H](C(=O)N[C@@H](CCCCN)C(=O)N[C@@H](CCCCN)C(=O)O)[C@@H](C)O)C(C)C)[C@@H](C)O)[C@@H](C)CC)[C@@H](C)CC)C(C)C)[C@@H](C)CC)[C@@H](C)O)[C@@H](C)CC` [IISTIGKLVKWIIKTVNKFTKK], the minimum inhibitory concentration (MIC) in experiment [4] amounted to 4.7 µM (≈ 12 µg/mL); in experiment [5], 2.7 µM (≈ 6.91 µg/mL).
As to `CC(C)[C@H](NC(=O)[C@H](Cc1ccc(O)cc1)NC(=O)[C@H](CO)NC(=O)[C@H](CCCCN)NC(=O)[C@@H](N)CCCCN)C(=O)N[C@@H](CCCN=C(N)N)C(=O)N[C@@H](CCCN=C(N)N)C(=O)N[C@@H](Cc1c[nH]c2ccccc12)C(=O)N[C@@H](CCCN=C(N)N)C(=O)N[C@@H](CO)C(N)=O` [KKSYVRRWRS], the MIC in experiment [1], in experiment [2] and in experiment [6] was more than 100 µM each time.
Consider `CC(C)C[C@H](NC(=O)[C@H](CCCCN)NC(=O)[C@H](CCCCN)NC(=O)[C@H](C)NC(=O)[C@H](CC(C)C)NC(=O)[C@H](CCCCN)NC(=O)[C@H](C)NC(=O)[C@H](CC(C)C)NC(=O)[C@H](CCCCN)NC(=O)[C@H](CCCCN)NC(=O)[C@H](C)NC(=O)[C@H](CC(C)C)NC(=O)[C@H](CCCCN)NC(=O)[C@H](C)NC(=O)[C@H](CC(C)C)NC(=O)[C@H](CCCCN)NC(=O)[C@H](CCCCN)NC(=O)[C@H](C)NC(=O)[C@H](CC(C)C)NC(=O)[C@@H](N)CCCCN)C(=O)N[C@@H](C)C(N)=O` [KLAKKLAKLAKKLAKLAKKLA], for which the minimal inhibitory concentration (MIC) in experiment [1], in experiment [2] and in experiment [6] was 4 µM (≈ 9.1 µg/mL) in each case.
On to `CC(=O)N[C@@H](CCCCN)C(=O)N[C@@H](CC(C)C)C(=O)N[C@@H](CC(C)C)C(=O)N[C@@H](CCCCN)C(=O)N[C@@H](CC(C)C)C(=O)N1CCC[C@H]1C(=O)N[C@@H](CCCCN)C(=O)N[C@@H](CCCCN)C(=O)N[C@@H](CC(C)C)C(=O)N[C@@H](CC(C)C)C(=O)N[C@@H](CCCCN)C(=O)N[C@@H](CC(C)C)C(=O)N[C@@H](CC(C)C)C(=O)N[C@@H](CCCCN)C(N)=O` [KLLKLPKKLLKLLK], for which the MIC in experiment [3] and in experiment [2] was more than 80 µM each time.
With `CC[C@H](C)[C@H](NC(=O)[C@@H](NC(=O)[C@H](CCCCN)NC(=O)[C@H](CC(C)C)NC(=O)[C@H](CC(C)C)NC(=O)[C@@H](N)CCCCN)C(C)C)C(=O)N[C@@H](CCCCN)C(=O)N[C@@H](CCCCN)C(=O)N[C@@H](CC(C)C)C(=O)N[C@@H](CC(C)C)C(N)=O` [KLLKVIKKLL], the minimal inhibitory concentration (MIC) in experiment [2] came out at 5.02 µM (≈ 6 µg/mL); in experiment [6], 7.53 µM (≈ 8.99 µg/mL).
In experiment [1], `CC[C@H](C)[C@H](NC(=O)CNC(=O)[C@H](CCC(N)=O)NC(=O)CNC(=O)[C@H](Cc1c[nH]c2ccccc12)NC(=O)[C@H](CCCCN)NC(=O)[C@H](CCC(=O)O)NC(=O)[C@@H](NC(=O)[C@H](CCCCN)NC(=O)[C@H](CCCCN)NC(=O)[C@H](Cc1c[nH]c2ccccc12)NC(=O)[C@H](CC(C)C)NC(=O)[C@H](CCCCN)NC(=O)[C@H](Cc1c[nH]c2ccccc12)NC(=O)[C@@H](N)CCCCN)[C@@H](C)CC)C(=O)NCC(=O)N[C@@H](C)C(=O)N[C@H](C(=O)N[C@@H](CC(C)C)C(=O)N[C@@H](CCCCN)C(=O)N[C@@H](Cc1c[nH]c2ccccc12)C(=O)N[C@@H](CC(C)C)C(=O)N[C@H](C(=O)N[C@H](C(=O)N[C@@H](Cc1c[nH]c2ccccc12)C(=O)N[C@@H](CC(C)C)C(=O)O)[C@@H](C)O)[C@@H](C)O)C(C)C` [KWKLWKKIEKWGQGIGAVLKWLTTWL] displayed a minimum inhibitory concentration (MIC) of 32 µM (≈ 102 µg/mL).
In the case of `CC(C)C[C@H](NC(=O)[C@H](CCCCN)NC(=O)[C@H](CC(C)C)NC(=O)[C@H](CC(C)C)NC(=O)[C@H](CCCCN)NC(=O)[C@H](CCCCN)NC(=O)[C@H](Cc1cnc[nH]1)NC(=O)[C@H](CC(C)C)NC(=O)[C@H](CCCCN)NC(=O)[C@H](CC(C)C)NC(=O)[C@H](CC(C)C)NC(=O)[C@H](CCCCN)NC(=O)[C@H](CCCCN)NC(=O)[C@@H](N)CC(C)C)C(=O)N[C@@H](C)C(=O)NCC(=O)O` [LKKLLKLHKKLLKLAG], the MIC in experiment [3] was more than 40 µM; in experiment [2], 2.5 µM (≈ 4.61 µg/mL).
Consider `CC[C@H](C)[C@H](NC(=O)[C@H](CCCN=C(N)N)NC(=O)[C@H](CCCCN)NC(=O)[C@@H](N)CC(C)C)C(=O)N[C@@H](CCCCN)C(=O)N[C@H](C(=O)N[C@@H](CC(C)C)C(=O)N[C@@H](CC(C)C)C(N)=O)[C@@H](C)O` [LKRIKTLL], for which the MIC in experiment [2] and in experiment [6] was more than 31.5 µM throughout.
For the compound `CC[C@H](C)[C@H](NC(=O)[C@H](CCCCN)NC(=O)[C@H](CCCCN)NC(=O)[C@@H](N)CCC(N)=O)C(=O)N[C@@H](CCCN=C(N)N)C(=O)N[C@H](C(=O)N[C@@H](C)C(=O)N[C@@H](CC(C)C)C(=O)N[C@@H](CO)C(=O)N[C@@H](C)C(=O)O)C(C)C` [QKKIRVALSA], the MIC was more than 57.5 µM in experiment [3], 14.4 µM (≈ 16 µg/mL) in experiment [1] and 14.4 µM (≈ 16 µg/mL) in experiment [2].
`CC(C)C[C@H](NC(=O)[C@H](C)NC(=O)[C@@H](N)CO)C(=O)N[C@H](C(=O)NCC(=O)N[C@H]1CSSC[C@@H](C(=O)N[C@@H](Cc2ccccc2)C(=O)NCC(=O)N[C@@H](CCCN=C(N)N)C(=O)O)NC(=O)[C@@H]2CCCN2C(=O)[C@H](CCCCN)NC(=O)[C@@H]2CCCN2C(=O)[C@@H]2CCCN2C(=O)[C@H](Cc2c[nH]c3ccccc23)NC(=O)[C@H](CO)NC(=O)[C@H](CCCCN)NC(=O)[C@H]([C@@H](C)O)NC(=O)[C@H](Cc2c[nH]c3ccccc23)NC1=O)C(C)C` [SALVGCWTKSWPPKPCFGR]: the minimal inhibitory concentration (MIC) in experiment [2] came to 23.6 µM (≈ 50 µg/mL); in experiment [6] it was 11.8 µM (≈ 25 µg/mL).
As to `CC[C@H](C)[C@H](NC(=O)[C@@H](N)C(C)C)C(=O)N[C@@H](C)C(=O)N[C@@H](Cc1ccccc1)C(=O)N[C@@H](C)C(=O)N[C@@H](CCCCN)C(=O)N[C@H](C(=O)N[C@@H](CCCCN)C(=O)N[C@@H](CCC(=O)O)C(=O)N[C@@H](C)C(=O)N[C@@H](CCCCN)C(=O)N[C@@H](C)C(=O)N[C@@H](CCCCN)C(=O)N[C@@H](CC(C)C)C(=O)N[C@@H](CCCCN)C(=O)NCC(=O)N[C@@H](CCC(N)=O)C(=O)N[C@@H](C)C(=O)N[C@@H](CCCCN)C(=O)NCC(=O)O)[C@@H](C)O` [VIAFAKTKEAKAKLKGQAKG], the MIC in experiment [5] was more than 123 µM.
On to `CC(C)C[C@H](NC(=O)[C@H](Cc1ccc(O)cc1)NC(=O)[C@@H]1CCCN1C(=O)[C@H](Cc1c[nH]c2ccccc12)NC(=O)[C@H](Cc1c[nH]c2ccccc12)NC(=O)[C@H](Cc1c[nH]c2ccccc12)NC(=O)[C@@H]1CCCN1C(=O)[C@H](Cc1ccc(O)cc1)NC(=O)[C@H](CCCN=C(N)N)NC(=O)[C@H](CCCN=C(N)N)NC(=O)[C@@H](N)C(C)C)C(=O)N[C@@H](CCCN=C(N)N)C(=O)N[C@@H](CCCN=C(N)N)C(N)=O` [VRRYPWWWPYLRR], for which the MIC in experiment [4] was 2.58 µM (≈ 5 µg/mL); in experiment [5], 10.3 µM (≈ 20 µg/mL).
As for `CC(C)[C@H](NC(=O)[C@H](Cc1ccc(O)cc1)NC(=O)[C@H](CO)NC(=O)[C@H](CCCCN)NC(=O)[C@@H](N)Cc1c[nH]c2ccccc12)C(=O)N[C@@H](CCCN=C(N)N)C(=O)N[C@@H](CCCN=C(N)N)C(=O)N[C@@H](Cc1c[nH]c2ccccc12)C(N)=O` [WKSYVRRW], the MIC in experiment [1] was more than 100 µM; in experiment [2] it was 64 µM (≈ 75.5 µg/mL); in experiment [6], 100 µM (≈ 118 µg/mL).
